From patent US20070254930A1, “Oral Preparation Having Improved Bioavailability” (DONG WHA PHARM. IND. CO., LTD., priority 2004, published 2007)

Key:
[1] = pH-dependent water solubility; format: physicochemical; settings: pH about pH 5 or more
[2] = Gelation experiment: viscosity of aqueous solutions; format: physicochemical; settings: for Viscosity: Brookfield DV-II+, 10° C. ± 0.3° C., spindle S 51
Description: The following test was carried out to evaluate the degree of gelation depending on the concentration of 2 methanesulfonic acid salt of the compound of Chemical Formula 1 according to the present invention.
200 mg of 2 methanesulfonic acid salt of the compound of Chemical Formula 1 was dissolved in 10 mL of water (20 mg/mL). The solution was diluted with water to give 20, 10, 5, and 2.5 mg/mL. Viscosity of these diluted solutions was measured according to the following test conditions described in Table 1, and also the results for the test are shown in Table 1.

Row | SMILES | solubility in aqueous condition (in words) [1] | Viscosity ([2]; 2.5 mg/ml in water) [cP] | Viscosity ([2]; 5 mg/ml in water) [cP] | Viscosity ([2]; 10 mg/ml in water) [cP] | Viscosity ([2]; 20 mg/ml in water) [cP] | gelation property in aqueous solution (in words) ([2]; aqueous solution)
1 | Cc1nc(-c2ccc(OCCCCCOc3ccc(C(=N)NO)cc3)cc2)c(C(C)C)s1 [compound of Chemical Formula 1, N-hydroxy-4-{5-[4-(5-isopropyl-2-methyl-1,3-thiazol-4-yl)phenoxy]pentoxy}-benzamidine] | practically insoluble |  |  |  |  | 
2 | CS(=O)(=O)O.CS(=O)(=O)O.Cc1nc(-c2ccc(OCCCCCOc3ccc(C(=N)NO)cc3)cc2)c(C(C)C)s1 [N-hydroxy-4-{5-[4-(5-isopropyl-2-methyl-1,3-thiazol-4-yl)phenoxy]pentoxy}-benzamidine 2 methanesulfonic acid salt] |  | 6.34 | 11.9 | 20.0 | 78.9 | high gelation property
